Measured values: PubChem BioAssay AID328 (DTP/NCI, 2004)
Toxic doses and inconclusive results are not listed. How the source made its calls: active means survival T/C of 150% or more; inactive means T/C below 125% in these data. Non-standard residues stand in square brackets, D forms with d. Residues, ends and D or L forms follow the SMILES beside them. ξ: configuration not given here. *: point of attachment. Boc = CC(C)(C)OC(=O)*; ξP = O=C(O)C1CCCN1

Test system: BDF1 mice, P388 leukemia ip, median survival T/C
Test: NCI In Vivo Anticancer Drug Screen. Data for tumor model P388 Leukemia (intraperitoneal) in B6D2F1 (BDF1) mice
Details: endpoint: median survival time, higher = longer survival
In short: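 Read-out is survival of treated animals expressed relative to the vehicle group, as a T/C ratio.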

[1] = dose: 100.0 mg/kg/injection, schedule: Q04DX003 (ip), vehicle: saline
[2] = dose: 200.0 mg/kg/injection, schedule: Q04DX003 (ip), vehicle: saline
[3] = dose: 400.0 mg/kg/injection, schedule: Q04DX003 (ip), vehicle: saline
[4] = dose: 100.0 mg/kg/injection, schedule: Q04DX003 (ip), vehicle: saline with Tween-80
[5] = dose: 200.0 mg/kg/injection, schedule: Q04DX003 (ip), vehicle: saline with Tween-80

Measured: T/C

O=C(/C(=C/c1ccccc1)CBr)c1ccccc1
inactive: dose: 1.6 mg/kg/injection, schedule: Q01DX009 (ip), vehicle: Klucel (hydroxypropylcellulose) (HPC) 109 % of control | dose: 3.1 mg/kg/injection, schedule: Q01DX009 (ip), vehicle: Klucel (hydroxypropylcellulose) (HPC) 100 % of control | dose: 6.25 mg/kg/injection, schedule: Q01DX009 (ip), vehicle: Klucel (hydroxypropylcellulose) (HPC) 104 % of control | dose: 12.5 mg/kg/injection, schedule: Q01DX009 (ip), vehicle: Klucel (hydroxypropylcellulose) (HPC) 86 % of control | dose: 12.5 mg/kg/injection, schedule: Q04DX003 (ip), vehicle: Klucel (hydroxypropylcellulose) (HPC) 104 % of control | dose: 25.0 mg/kg/injection, schedule: Q01DX009 (ip), vehicle: Klucel (hydroxypropylcellulose) (HPC) 86 % of control | dose: 25.0 mg/kg/injection, schedule: Q04DX003 (ip), vehicle: Klucel (hydroxypropylcellulose) (HPC) 95 % of control | dose: 50.0 mg/kg/injection, schedule: Q04DX003 (ip), vehicle: Klucel (hydroxypropylcellulose) (HPC) 95 % of control

COC(=O)CNC(=O)C1CCCN1C(=O)OC(C)(C)C (stereo not drawn) (Boc-[ξP]-Gly-OMe)
inactive: [1] 100 % of control | [2] 105 % of control | [3] 95 % of control

O=C(NCCNC(=O)c1cccnc1)c1ccncc1
inactive: dose: 100.0 mg/kg/injection, schedule: Q01DX001 (ip), vehicle: saline 90 % of control | dose: 200.0 mg/kg/injection, schedule: Q01DX001 (ip), vehicle: saline 90 % of control | dose: 400.0 mg/kg/injection, schedule: Q01DX001 (ip), vehicle: saline 90 % of control

CC1=CC(C(O)C(C)C)C(C)(Cc2ccc(C)cn2)NC1c1ccccc1 (stereo not drawn)
inactive: dose: 6.25 mg/kg/injection, schedule: Q04DX003 (ip), vehicle: saline with Tween-80 102 % of control | dose: 12.5 mg/kg/injection, schedule: Q04DX003 (ip), vehicle: saline with Tween-80 102 % of control | dose: 25.0 mg/kg/injection, schedule: Q04DX003 (ip), vehicle: saline with Tween-80 109 % of control

OC(c1cc(-c2ccc(C(F)(F)F)cc2)nc(C(F)(F)F)c1)C1CCCCN1 (stereo not drawn)
inactive: dose: 50.0 mg/kg/injection, schedule: Q01DX009 (ip), vehicle: saline with Tween-80 108 % of control

Nc1ccc(CCCCc2ccc(Cl)cc2Cl)cc1
inactive: dose: 25.0 mg/kg/injection, schedule: Q01DX009 (ip), vehicle: saline 95 % of control | dose: 50.0 mg/kg/injection, schedule: Q01DX009 (ip), vehicle: saline 95 % of control | dose: 100.0 mg/kg/injection, schedule: Q01DX009 (ip), vehicle: saline 95 % of control | [1] 104 % of control | dose: 150.0 mg/kg/injection, schedule: Q01DX009 (ip), vehicle: saline 109 % of control | [2] 100 % of control

S=C1SCN(Cc2cccs2)CN1Cc1cccs1
inactive: dose: 50.0 mg/kg/injection, schedule: Q01DX005 (ip), vehicle: saline with Tween-80 99 % of control | dose: 100.0 mg/kg/injection, schedule: Q01DX005 (ip), vehicle: saline with Tween-80 87 % of control | dose: 200.0 mg/kg/injection, schedule: Q01DX005 (ip), vehicle: saline with Tween-80 95 % of control

COC(=O)c1nc(-c2ccc3c(n2)C(=O)C(N)=C(OC)C3=O)c(N)c(-c2ccc(OC)c(OC)c2O)c1C
active: dose: 4.0 mg/kg/injection, schedule: Q01DX009 (ip), vehicle: saline with Tween-80 250 % of control | dose: 6.0 mg/kg/injection, schedule: Q01DX009 (ip), vehicle: saline with Tween-80 183 % of control | dose: 9.0 mg/kg/injection, schedule: Q01DX009 (ip), vehicle: saline with Tween-80 162 % of control

COc1cc(/C=N/n2cnnc2)cc(OC)c1OC
inactive: [1] 100 % of control | [2] 100 % of control | [3] 109 % of control

CCC1(C)N=C(C)C(C)S1 (stereo not drawn)
inactive: [4] 100 % of control | [5] 100 % of control | dose: 400.0 mg/kg/injection, schedule: Q04DX003 (ip), vehicle: saline with Tween-80 109 % of control

CC(=O)N1C=Cn2c(cnc2C)C1O (stereo not drawn)
inactive: dose: 100.0 mg/kg/injection, schedule: Q04DX003 (ip), vehicle: water 96 % of control | dose: 200.0 mg/kg/injection, schedule: Q04DX003 (ip), vehicle: water 91 % of control | dose: 400.0 mg/kg/injection, schedule: Q04DX003 (ip), vehicle: water 99 % of control

CC(C)CSc1nc(N)nc2nc[nH]c12
inactive: [4] 109 % of control | [5] 109 % of control

CCN(CC)CCNc1ncnc2c1cnn2-c1ccc(Cl)cc1
inactive: [4] 109 % of control | [5] 109 % of control
